Structures can show the parent of a compound that is named as a salt. Where only a bound is given, the exact number is not on record here.

Our source for the IC50 values is US20250163002A1, “FUSED QUINONOXIME IMIDAZOLE, ONIUM DERIVATIVES THEREOF, PREPARATION AND USE THEREOF” (SHANGHAI JIAO TONG UNIVERSITY, priority 2022, published 2025).

Type in all cases: cell-based
Details in all cases: 24 h or 48 h after addition, unit inferred

Assay [1] has as its system HeLa. Nature of the assay: In vitro inhibition test for cancer cell proliferation (MTT), HeLa.
The test system of assay [2] is L929. Kind of assay: In vitro cell proliferation inhibition test (MTT), L929.
Assay [3] deals with MCF-7. Kind of assay: In vitro inhibition test for cancer cell proliferation (MTT), MCF-7.
The test system of assay [4] is A549. Nature of the assay: In vitro inhibition test for cancer cell proliferation (MTT), A549.

On to `C[n+]1cn(-c2ccc(F)cc2)c2c1/C(=N/O)c1ccccc1C2=O` [Compound 111, (E)-1-(4-fluorophenyl)-4-(hydroxylimino)-3-methyl-9-oxo-4,9-dihydro-1H-naphthol[2,3-d]imidazole-3-iodide], for which the IC50 was 19.7 µM in assay [1], over 100 µM in assay [2], 24.6 µM in assay [3] and 11.6 µM in assay [4].

Turning to `C[n+]1cn(C2CC2)c2c1/C(=N/O)c1ccccc1C2=O` [Compound 99, (E)-1-cyclopropyl-4-(hydroxylimino)-3-methyl-9-oxo-4,9-dihydro-1H-naphthol[2,3-d]imidazole-3-iodide], the IC50 is 5.74 µM in assay [1], 19.8 µM in assay [2], 1.63 µM in assay [3] and 1.72 µM in assay [4].

With `C[n+]1cn(Cc2cccs2)c2c1/C(=N/O)c1ccccc1C2=O` [Compound 106, (E)-4-(hydroxylimino)-3-methyl-9-oxo-1-(thiophene-2-yl-methyl)-4,9-dihydro-1H-naphthol[2,3-d]imidazole-3-iodide], the 50% inhibitory concentration (IC50) in assay [1] is 9.2 µM; in assay [2] it was over 100 µM; in assay [3] it was 20.2 µM; in assay [4] it was 11.2 µM.

For `C[n+]1cn(-c2ccc(F)c(Br)c2)c2c1/C(=N/O)c1ccccc1C2=O` [Compound 117, (E)-1-(3-bromo-4-fluorophenyl)-4-(hydroxylimino)-3-methyl-9-oxo-4,9-dihydro-1H-naphthol[2,3-d]imidazole-3-iodide], the half-maximal inhibitory concentration (IC50) in assay [1] is 87.8 µM; in assay [2], over 100 µM; in assay [3], 67.7 µM; in assay [4], 5.2 µM.

For the compound `Cc1cc(C)c(-n2c[n+](C)c3c2C(=O)c2ccccc2/C3=N\O)c(C)c1` [Compound 105, (E)-4-(hydroxylimino)-1-sym-trimethyl-3-methyl-9-oxo-4,9-dihydro-1H-naphthol[2,3-d]imidazole-3-iodide], the IC50 is 22.6 µM in assay [1], over 100 µM in assay [2], 6.12 µM in assay [3] and 1.11 µM in assay [4].

`C[n+]1cn(Cc2cccc(F)c2)c2c1/C(=N/O)c1ccccc1C2=O` [Compound 113, (E)-1-(3-fluorobenzyl)-4-(hydroxylimino)-3-methyl-9-oxo-4,9-dihydro-1H-naphthol[2,3-d]imidazole-3-iodide]: the IC50 in assay [1] is 7.1 µM; in assay [2], 73.4 µM; in assay [3] it was 10 µM; in assay [4], 0.57 µM.

With `Cn1c[n+](C)c2c1C(=O)c1ccccc1C2=NOCc1ccccc1` [Compound 140, (E) and (Z)-4-((benzyloxy)imino)-1,3-dimethyl-9-oxo-4,9-dihydro-1H-naphthol[2,3-d]imidazole-3-dimethyl sulfate], the IC50 in assay [1] amounted to 9.8 µM; in assay [2], 34.5 µM; in assay [3], 10.9 µM; in assay [4], 0.007 µM.

Consider `C[n+]1cn(-c2cccc(F)c2)c2c1/C(=N/O)c1ccccc1C2=O` [Compound 110, (E)-1-(3-fluorophenyl)-4-(hydroxylimino)-3-methyl-9-oxo-4,9-dihydro-1H-naphthol[2,3-d]imidazole-3-iodide], for which the IC50 in assay [1] was 49 µM; in assay [2], over 100 µM; in assay [3] it was 42.3 µM; in assay [4], 17.2 µM.

`C[n+]1cn(C(C)(C)C)c2c1/C(=N/O)c1ccccc1C2=O` [Compound 98, (E)-1-(tert-butyl)-4-(hydroxylimino)-3-methyl-9-oxo-4,9-dihydro-1H-naphthol[2,3-d]imidazole-3-iodide]: the concentration for half-maximal inhibition (IC50) in assay [1] amounted to 2.18 µM; in assay [2], 38.9 µM; in assay [3] it was 1.81 µM; in assay [4] it was 0.59 µM.

For `CCCCn1c[n+](CC)c2c1C(=O)c1ccccc1C2=NOC` [Compound 122, (E) and (Z)-1-butyl-3-ethyl-4-(methoxylimino)-9-oxo-4,9-dihydro-1H-naphthol[2,3-d]imidazole-3-iodide], the IC50 in assay [1] is 52 µM; in assay [2], over 100 µM; in assay [3] it was 33 µM; in assay [4], 1.8 µM.
